According to patent publication US9302981B2, “Synthesis, methods of using, and compositions of cycloalkylmethylamines” (Reviva Pharmaceuticals, Inc., priority 2006, dated 2016):

Key:
[1] = molecular target: human recombinant dopamine transporter (DAT) (Homo sapiens (Human), UniProt Q01959); assay: Radioligand binding assay, dopamine transporter (MDS Pharma); details: for nH (Hill coefficient): DAT, slope of the competitive binding curve
Procedure: (§1) The monoamine transporters inhibitory activities of selected compounds (54b and 54d) are reported herein. The compounds were evaluated at MDS Pharma services (22011 Drive SE, Bothell, Wash. 98021, USA) using well established radioligand binding assays protocols (Galli, A. et al., J. Exp. Biol. 1995, 198, 2197-2212; Giros, B. et al., Trends Pharmcol. Sci. 1993, 14, 43-49; Gu, H. et al., J. Biol. Chem. 1994, 269(10), 7124-7130; Shearman, L. P. et al, Am. J. Physiol., 1998, 275 (6 Pt 1), C1621-1629; Wolf, W. A. et al., J. Biol. Chem. 1992, 267(29), 20820-20825). The human recombinant transporter proteins dopamine (DAT), norepinephrine (NET) and serotonin (SERT) were selected for the in vitro assays. The CHO-K1 cells expressed with human recombinant dopamine transporter (DAT) (MDS catalog 220320) was used for evaluating the dopamine transporter inhibitory activity. Whereas, MDCK cells expressed with human recombinant transporters norepinephrine (NET) (MDS catalog no. 204410) and serotonin (SERT) (MDS catalog no. 274030) were used for evaluating the norepinephrine transporter (NET) and serotonin transporter (SERT) inhibitory activities, respectively. The radioligand binding assays were carried out at four different test concentrations and the test concentrations were 1 nM, 10 nM, 0.1 μM, and 1 μM.
(§2) The assays were carried out in duplicates and the quantitative data are reported as IC50, Ki, and nH. Where presented, IC50 values were determined by a non-linear, least squares regression analysis using MathIQ™ (ID Business Solutions Ltd. UK). […] Where presented, the Hill coefficient (nH), defining the slope of the competitive binding curve, was calculated using MathIQ™.

[2] = molecular target: human recombinant norepinephrine transporter (NET) (Homo sapiens (Human), UniProt P23975); assay: Radioligand binding assay, norepinephrine transporter (MDS Pharma); details: for nH (Hill coefficient): NET, slope of the competitive binding curve
human recombinant norepinephrine transporter (NET), sequence (P23975 whole entry): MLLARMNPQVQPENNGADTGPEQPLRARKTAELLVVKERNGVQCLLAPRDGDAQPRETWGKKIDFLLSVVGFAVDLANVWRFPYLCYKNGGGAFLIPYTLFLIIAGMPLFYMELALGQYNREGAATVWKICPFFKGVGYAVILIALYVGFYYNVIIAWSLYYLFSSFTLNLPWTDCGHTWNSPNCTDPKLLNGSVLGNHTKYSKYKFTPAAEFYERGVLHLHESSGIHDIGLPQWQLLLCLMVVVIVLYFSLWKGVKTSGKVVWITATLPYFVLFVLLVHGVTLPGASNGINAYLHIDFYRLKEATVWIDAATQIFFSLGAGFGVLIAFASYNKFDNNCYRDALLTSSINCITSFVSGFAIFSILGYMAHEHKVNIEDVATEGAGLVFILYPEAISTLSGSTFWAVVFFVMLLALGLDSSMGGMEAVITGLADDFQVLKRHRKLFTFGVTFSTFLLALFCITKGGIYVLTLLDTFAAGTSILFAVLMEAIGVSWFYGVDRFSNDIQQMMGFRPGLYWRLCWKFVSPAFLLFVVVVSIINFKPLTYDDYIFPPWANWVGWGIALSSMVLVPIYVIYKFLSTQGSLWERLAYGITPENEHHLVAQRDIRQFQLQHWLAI
Procedure: The human recombinant transporter proteins dopamine (DAT), norepinephrine (NET) and serotonin (SERT) were selected for the in vitro assays. […] The radioligand binding assays were carried out at four different test concentrations and the test concentrations were 1 nM, 10 nM, 0.1 μM, and 1 μM.
as §2

[3] = molecular target: human recombinant serotonin transporter (SERT) (Homo sapiens (Human), UniProt P31645); assay: Radioligand binding assay, serotonin transporter (MDS Pharma); details: for nH (Hill coefficient): SERT, slope of the competitive binding curve
Procedure: as §1, §2

Compound	IC50 [1] [µM]	Ki [1] [µM]	nH (Hill coefficient) [1]	IC50 [2] [µM]	Ki [2] [µM]	nH (Hill coefficient) [2]	IC50 [3] [µM]	Ki [3] [µM]	nH (Hill coefficient) [3]
CCOC(=O)C(CC)NC(CC(C)C)C1(c2ccc(Cl)cc2)CCC1 (stereo not drawn) [Compound 54b, Ethyl 2-(1-(1-(4-chlorophenyl)cyclobutyl)-3-methylbutylamino]butanoate]	0.0569	0.0452	0.826	0.121	0.12	0.832	0.14	0.0228	0.677
CCC(NC(CC(C)C)C1(c2ccc(Cl)cc2)CCC1)C(=O)OCC(C)C (stereo not drawn) [Compound 54d, Isobutyl 2-(1-(1-(4-chlorophenyl)cyclobutyl)-3-methylbutylamino]butanoate]	0.37	0.294	0.943	0.182	0.18	1.04	0.415	0.0676	0.578
